According to patent US10865208B2, “ATG7 inhibitors and the uses thereof” (Millennium Pharmaceuticals, Inc., priority 2016, dated 2020):

Target: recombinant human His-ATG7 enzyme (Homo sapiens (Human), UniProt O95352)
Experiment: ATG7 Enzyme Assay (HTRF/FRET, ATG3-GST and Flag-Gabarap)
Format: biochemical
Conditions: for inhibition at 0.111 µM: Concentration 0.111 μM
How it was run: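 0.15 nM His-ATG7 was reacted with 5 nM ATG3-GST, 5 nM Flag-Gabarap and 10 μM ATP in HEPES pH 7.5 containing MgCl2, GSH and TCEP for 105 min at 24° C, then stopped with EDTA/KF. Eu-anti-Flag and anti-GST-APC HTRF was read after 2 h. Results are given as single-concentration % inhibition or IC50.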

Sequence of recombinant human His-ATG7 enzyme (O95352 whole entry): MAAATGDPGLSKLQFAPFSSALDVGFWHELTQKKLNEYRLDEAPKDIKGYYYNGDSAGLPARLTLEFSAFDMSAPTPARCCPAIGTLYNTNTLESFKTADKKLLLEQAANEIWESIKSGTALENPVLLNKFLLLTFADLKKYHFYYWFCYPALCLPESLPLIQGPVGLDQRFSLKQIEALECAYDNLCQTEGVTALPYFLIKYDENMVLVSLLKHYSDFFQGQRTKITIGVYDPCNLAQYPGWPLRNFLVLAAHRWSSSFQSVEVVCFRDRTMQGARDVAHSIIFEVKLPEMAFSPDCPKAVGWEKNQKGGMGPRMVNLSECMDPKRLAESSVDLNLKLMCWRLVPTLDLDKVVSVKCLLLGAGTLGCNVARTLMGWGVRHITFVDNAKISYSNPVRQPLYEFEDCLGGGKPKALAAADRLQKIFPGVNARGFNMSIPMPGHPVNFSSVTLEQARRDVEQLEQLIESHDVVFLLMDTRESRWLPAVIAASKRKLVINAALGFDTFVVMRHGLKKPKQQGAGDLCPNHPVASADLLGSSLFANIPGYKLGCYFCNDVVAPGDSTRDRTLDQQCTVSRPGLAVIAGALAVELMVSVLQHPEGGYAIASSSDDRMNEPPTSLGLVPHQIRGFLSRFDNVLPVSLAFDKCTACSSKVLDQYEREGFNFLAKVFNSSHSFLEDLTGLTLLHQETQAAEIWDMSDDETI

IC50 [nM] | inhibition at 0.111 µM (read-out: Percent Inhibition) [%] | inhibition at 0.123 µM (Concentration 0.123 μM, read-out: Percent Inhibition) [%] | Compound
< 20 | 89 | – | Nc1ncnc2c1c(Sc1ccccn1)nn2[C@@H]1O[C@H](COS(N)(=O)=O)[C@@H](O)[C@@H]1F [Compound I-113, {(2R,3R,4S,5R)-5-[4-amino-3-(pyridin-2-ylsulfanyl)-1H-pyrazolo[3,4-d]pyrimidin-1-yl]-4-fluoro-3-hydroxytetrahydrofuran-2-yl}methyl sulfamate]
20 to 50 | 75 | – | Nc1ncnc2c1c(Sc1cccc(F)c1)nn2[C@@H]1O[C@H](COS(N)(=O)=O)[C@@H](O)[C@@H]1F [Compound I-116, [(2R,3R,4S,5R)-5-{4-amino-3-[(3-fluorophenyl)sulfanyl]-1H-pyrazolo[3,4-d]pyrimidin-1-yl}-4-fluoro-3-hydroxytetrahydrofuran-2-yl]methyl sulfamate]
< 20 | 86 | – | CC(C)(C)Sc1nn([C@@H]2O[C@H](COS(N)(=O)=O)[C@@H](O)[C@@H]2F)c2ncnc(N)c12 [Compound I-118, {(2R,3R,4S,5R)-5-[4-amino-3-(tert-butylsulfanyl)-1H-pyrazolo[3,4-d]pyrimidin-1-yl]-4-fluoro-3-hydroxytetrahydrofuran-2-yl}methyl sulfamate]
50 to 100 | 65 | – | Nc1ncnc2c1c(SCc1ccccn1)nn2[C@@H]1O[C@H](COS(N)(=O)=O)[C@@H](O)[C@@H]1F [Compound I-119, [(2R,3R,4S,5R)-5-{4-amino-3-[(pyridin-2-ylmethyl)sulfanyl]-1H-pyrazolo[3,4-d]pyrimidin-1-yl}-4-fluoro-3-hydroxytetrahydrofuran-2-yl]methyl sulfamate]
100 to 500 | 46 | – | CCC(CC)Sc1nn([C@@H]2O[C@H](COS(N)(=O)=O)[C@@H](O)[C@@H]2F)c2ncnc(N)c12 [Compound I-120, {(2R,3R,4S,5R)-5-[4-amino-3-(pentan-3-ylsulfanyl)-1H-pyrazolo[3,4-d]pyrimidin-1-yl]-4-fluoro-3-hydroxytetrahydrofuran-2-yl}methyl sulfamate]
20 to 50 | 80 | – | Nc1ncnc2c1c(SC1CCCCC1)nn2[C@@H]1O[C@H](COS(N)(=O)=O)[C@@H](O)[C@@H]1F [Compound I-122, {(2R,3R,4S,5R)-5-[4-amino-3-(cyclohexylsulfanyl)-1H-pyrazolo[3,4-d]pyrimidin-1-yl]-4-fluoro-3-hydroxytetrahydrofuran-2-yl}methyl sulfamate]
50 to 100 | 52 | – | Nc1ncnc2c1c(SCc1ccncc1)nn2[C@@H]1O[C@H](COS(N)(=O)=O)[C@@H](O)[C@@H]1F [Compound I-124, [(2R,3R,4S,5R)-5-{4-amino-3-[(pyridin-4-ylmethyl)sulfanyl]-1H-pyrazolo[3,4-d]pyrimidin-1-yl}-4-fluoro-3-hydroxytetrahydrofuran-2-yl]methyl sulfamate]
100 to 500 | 37 | – | Cn1ccnc1Sc1nn([C@@H]2O[C@H](COS(N)(=O)=O)[C@@H](O)[C@@H]2F)c2ncnc(N)c12 [Compound I-125, [(2R,3R,4S,5R)-5-{4-amino-3-[(1-methyl-1H-imidazol-2-yl)sulfanyl]-1H-pyrazolo[3,4-d]pyrimidin-1-yl}-4-fluoro-3-hydroxytetrahydrofuran-2-yl]methyl sulfamate]
20 to 50 | 71 | – | Nc1ncnc2c1c(Sc1ccc(F)cc1)nn2[C@@H]1O[C@H](COS(N)(=O)=O)[C@@H](O)[C@@H]1F [Compound I-126, [(2R,3R,4S,5R)-5-{4-amino-3-[(4-fluorophenyl)sulfanyl]-1H-pyrazolo[3,4-d]pyrimidin-1-yl}-4-fluoro-3-hydroxytetrahydrofuran-2-yl]methyl sulfamate]
50 to 100 | 52 | – | Nc1ncnc2c1c(SCc1ccnnc1)nn2[C@@H]1O[C@H](COS(N)(=O)=O)[C@@H](O)[C@@H]1F [Compound I-128, [(2R,3R,4S,5R)-5-{4-amino-3-[(pyridazin-4-ylmethyl)sulfanyl]-1H-pyrazolo[3,4-d]pyrimidin-1-yl}-4-fluoro-3-hydroxytetrahydrofuran-2-yl]methyl sulfamate]

Second part, the compound before the results:

Compound | IC50 [nM] | inhibition at 0.111 µM (read-out: Percent Inhibition) [%] | inhibition at 0.123 µM (Concentration 0.123 μM, read-out: Percent Inhibition) [%]
Nc1ncnc2c1c(Sc1ccc([N+](=O)[O-])cn1)nn2[C@@H]1O[C@H](COS(N)(=O)=O)[C@@H](O)[C@@H]1F [Compound I-111, [(2R,3R,4S,5R)-5-{4-amino-3-[(5-nitropyridin-2-yl)sulfanyl]-1H-pyrazolo[3,4-d]pyrimidin-1-yl}-4-fluoro-3-hydroxytetrahydrofuran-2-yl]methyl sulfamate] | 20 to 50 | 73 | –
Cn1ccnc1CSc1nn([C@@H]2O[C@H](COS(N)(=O)=O)[C@@H](O)[C@@H]2F)c2ncnc(N)c12 [Compound I-112, [(2R,3R,4S,5R)-5-(4-amino-3-{[(1-methyl-1H-imidazol-2-yl)methyl]sulfanyl}-1H-pyrazolo[3,4-d]pyrimidin-1-yl)-4-fluoro-3-hydroxytetrahydrofuran-2-yl]methyl sulfamate] | 100 to 500 | 44 | –
Cc1ccnc(Sc2nn([C@@H]3O[C@H](COS(N)(=O)=O)[C@@H](O)[C@@H]3F)c3ncnc(N)c23)c1 [Compound I-114, [(2R,3R,4S,5R)-5-{4-amino-3-[(4-methylpyridin-2-yl)sulfanyl]-1H-pyrazolo[3,4-d]pyrimidin-1-yl}-4-fluoro-3-hydroxytetrahydrofuran-2-yl]methyl sulfamate] | < 20 | 90 | –
CSc1nn([C@@H]2O[C@H](COS(N)(=O)=O)[C@@H](O)[C@@H]2F)c2ncnc(N)c12 [Compound I-115, {(2R,3R,4S,5R)-5-[4-amino-3-(methylsulfanyl)-1H-pyrazolo[3,4-d]pyrimidin-1-yl]-4-fluoro-3-hydroxytetrahydrofuran-2-yl}methyl Sulfamate] | 20 to 50 | – | 73
Nc1ncnc2c1c(Sc1cc(C(F)(F)F)ccn1)nn2[C@@H]1O[C@H](COS(N)(=O)=O)[C@@H](O)[C@@H]1F [Compound I-117, [(2R,3R,4S,5R)-5-(4-amino-3-{[4-(trifluoromethyl)pyridin-2-yl]sulfanyl}-1H-pyrazolo[3,4-d]pyrimidin-1-yl)-4-fluoro-3-hydroxytetrahydrofuran-2-yl]methyl sulfamate] | 20 to 50 | 83 | –
Nc1ncnc2c1c(SCc1cccnc1)nn2[C@@H]1O[C@H](COS(N)(=O)=O)[C@@H](O)[C@@H]1F [Compound I-121, [(2R,3R,4S,5R)-5-{4-amino-3-[(pyridin-3-ylmethyl)sulfanyl]-1H-pyrazolo[3,4-d]pyrimidin-1-yl}-4-fluoro-3-hydroxytetrahydrofuran-2-yl]methyl sulfamate] | 50 to 100 | 65 | –
Nc1ncnc2c1c(SCc1cccnn1)nn2[C@@H]1O[C@H](COS(N)(=O)=O)[C@@H](O)[C@@H]1F [Compound I-127, [(2R,3R,4S,5R)-5-{4-amino-3-[(pyridazin-3-ylmethyl)sulfanyl]-1H-pyrazolo[3,4-d]pyrimidin-1-yl}-4-fluoro-3-hydroxytetrahydrofuran-2-yl]methyl sulfamate] | 50 to 100 | 61 | –
CC(C)[C@@H](C)Sc1nn([C@@H]2O[C@H](COS(N)(=O)=O)[C@@H](O)[C@@H]2F)c2ncnc(N)c12 [Compound I-129, [(2R,3R,4S,5R)-5-(4-amino-3-{[(2R)-3-methylbutan-2-yl]sulfanyl}-1H-pyrazolo[3,4-d]pyrimidin-1-yl)-4-fluoro-3-hydroxytetrahydrofuran-2-yl]methyl sulfamate] | 100 to 500 | 48 | –
N#Cc1ccnc(Sc2nn([C@@H]3O[C@H](COS(N)(=O)=O)[C@@H](O)[C@@H]3F)c3ncnc(N)c23)c1 [Compound I-130, [(2R,3R,4S,5R)-5-{4-amino-3-[(4-cyanopyridin-2-yl)sulfanyl]-1H-pyrazolo[3,4-d]pyrimidin-1-yl}-4-fluoro-3-hydroxytetrahydrofuran-2-yl]methyl sulfamate] | 20 to 50 | 77 | –
Nc1ncnc2c1c(Sc1ccc(C(F)(F)F)cc1)nn2[C@@H]1O[C@H](COS(N)(=O)=O)[C@@H](O)[C@@H]1F [Compound I-132, [(2R,3R,4S,5R)-5-(4-amino-3-{[4-(trifluoromethyl)phenyl]sulfanyl}-1H-pyrazolo[3,4-d]pyrimidin-1-yl)-4-fluoro-3-hydroxytetrahydrofuran-2-yl]methyl sulfamate] | 50 to 100 | 60 | –
Nc1ncnc2c1c(Sc1ccc(Cl)cc1)nn2[C@@H]1O[C@H](COS(N)(=O)=O)[C@@H](O)[C@@H]1F [Compound I-133, [(2R,3R,4S,5R)-5-{4-amino-3-[(4-chlorophenyl)sulfanyl]-1H-pyrazolo[3,4-d]pyrimidin-1-yl}-4-fluoro-3-hydroxytetrahydrofuran-2-yl]methyl sulfamate] | 20 to 50 | 67 | –
Cn1cncc1Sc1nn([C@@H]2O[C@H](COS(N)(=O)=O)[C@@H](O)[C@@H]2F)c2ncnc(N)c12 [Compound I-134, [(2R,3R,4S,5R)-5-{4-amino-3-[(1-methyl-1H-imidazol-5-yl)sulfanyl]-1H-pyrazolo[3,4-d]pyrimidin-1-yl}-4-fluoro-3-hydroxytetrahydrofuran-2-yl]methyl Sulfamate] | 100 to 500 | 37 | –
Nc1ncnc2c1c(SCC1CC1)nn2[C@@H]1O[C@H](COS(N)(=O)=O)[C@@H](O)[C@@H]1F [Compound I-135, [(2R,3R,4S,5R)-5-{4-amino-3-[(cyclopropylmethyl)sulfanyl]-1H-pyrazolo[3,4-d]pyrimidin-1-yl}-4-fluoro-3-hydroxytetrahydrofuran-2-yl]methyl sulfamate] | 20 to 50 | 82 | –
